Data reported in US20230136562A1, “SPIROUREA DERIVATIVES” (Idorsia Pharmaceuticals Ltd, priority 2020, published 2023).
Where a name gives a salt, the structure may show the parent alone. Read-outs that look alike come from different tables or passages of the source.

Assays:
DBA/2J mice = test: Audiogenic seizure-sensitive mouse model of generalized convulsive seizures (AGS); type: in vivo; details: challenge 1 h, 90% MC 0.5% + 10% PEG400, read-out: Seizure stage [% vs. vehicle]; for change in vivo at 30 mg/kg: 30 mg/kg po
Procedure: (§1) Formulation and Administration.
(§2) Compounds were formulated in a 10% polyethylene glycol 400 (PEG 400)/90% aqueous solution of 0.5% methylcellulose (MC 0.5%). Firstly drugs are dissolved in PEG 400 and then suspended in MC 0.5% for oral gavage at X mg/5 mL/kg (X see table).
Audiogenic Seizure-Sensitive Mouse Model of Generalized Convulsive Seizures
1. Procedure: Following two days of acclimatisation, auditory seizures are induced in male juvenile DBA/2J mice (22-24 days old). Each mouse is placed individually in the exposure chamber, an hemispheric acrylic glass dome (diameter: 50 cm) within a sound-attenuated box. The sound-attenuated box is equipped with two house lights and a camera system (Fire-I from Unibrain) in order to observe and record the behavioral seizure response. After 60 seconds of habituation, the stimulus, a mixed frequency tone of 15-20 kHz at 110 dB (SASLab Lite, Avisoft Bioacoustics), is played from a speaker that is placed on the top center of the dome. […] Seizures are classified as following: stage 0, normal behavior; stage 1, wild running; stage 2, generalized clonus; stage 3, tonic extension of the hind limbs.
2. Compounds testing: Acute compound effects on audiogenic generalized convulsive seizures are evaluated in independent groups of 8-10 mice randomly assigned. Following oral administration of compound or vehicle, the maximum seizure stage during sound exposure is assessed. Compounds are given 1 hour before exposure to the stimulus. Each mouse is exposed to the auditory stimulus only once and euthanized afterwards by CO2 inhalation.

Wistar rats = test: Amygdala-kindling rat model; type: in vivo; details: 1 mg/kg po, time of challenge 30 min, HCl salt, formulation 90% MC 0.5% + 10% PEG400
Procedure: as §1, §2
Amygdala-Kindling Rat Model:
1. Procedure: Adult male Wistar rats (Harlan Laboratories, Netherlands, or Charles Rivers, Germany; body weight 300-350 g) were stereotaxically implanted with twisted bipolar plastic-coated stainless steel electrode (MS333-2-BIU 10 mm, Plastics One) into the right basolateral amygdala under isoflurane anesthesia. To place the electrode, trepanations were made in the skull and the electrode was lowered into the right basolateral amygdala (from bregma: anteriorposterior (AP): −2.5 mm, medio-lateral (ML): −3.5 mm, dorso-ventral (DV): −8.6 mm; α=10°) and secured to the skull with screws and dental acrylate. After one week of recovery, they were handled daily and habituated over one week to the kindling set-up. Kindling procedure: For a kindling session each rat was placed individually into a smooth acrylic plastic, round-bottomed bowl (Ø 36 cm, height 36 cm, BASi movement-responsive caging system) and its intracranial implanted electrode was connected to the stimulator (STG4008, Multichannel Systems GmbH) and the recording devices (PowerLab 8/35, ADInstruments Ltd) via a cable (335-340/3 (C), Plastics One). For the kindling procedure, each rat was exposed once daily to an electrical stimulation and the behavioral symptoms of the evoked seizure were observed and classified according to the modified Racine scale (stage 0, arrest, wet dog shakes, normal behaviour; stage 1, facial twitches: nose, lips, eyes; stage 2, chewing, head nodding; stage 3, forelimb clonus; stage 4, rearing, falling on forelimbs; stage 5, rearing, falling on side or back, rolling). The electrical stimulus consists of a 1s-train of 50 Hz square-wave biphasic pulses of 1-ms duration at an intensity of 400 μA (suprathreshold intensity). […] Data Scoring and analysis. The duration of electroencephalographic seizures (afterdischarge, AD) was recorded using LabChart7 Pro software (ADlnstruments Ltd). Simultaneously, videos were recorded to evaluate seizure stage (SS).
2. Compound testing: Acute drug effects were evaluated in groups of 6-8 fully kindled rats in a randomized cross-over design with 48 h between drug and vehicle applications. Following oral administration of drug or vehicle, drug testing included determination of the afterdischarge threshold (the minimal stimulation intensity necessary to evoke an afterdischarge (electroencephalographically measured neuronal hyper-synchronous activity with an amplitude 2-times higher than baseline amplitude and a frequency of ≥1 Hz) of at least 3 sec duration) and monitoring electroencephalographic and behavioral correlates of the evoked seizure at ADT (afterdischarge threshold), including AD duration and SS, by a experimenter blind to treatment assignment.

[1] = test system: primary neuronal cultures from embryonic rat brains; test: Rat oscillation assay (FLIPR, neuronal calcium oscillations); type: cell-based
Procedure, shortened: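 Cortical neurons from E18 Wistar rat embryos, cultured 8–10 days at high density, loaded with 1 μM Fluo-8 AM; calcium oscillations recorded by FLIPR once per second in Mg-free HBSS with 2 mM CaCl2, 20 mM HEPES, pH 7.4. Two acquisitions ("Acute", 500 sec, compound added at 250 sec; "20 min"), ± Kv7 blocker XE-991.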

Kv7.2/7.3 = biological target: T1, Kv7.2/7.3 (Homo sapiens, UniProt O43525+O43526); test: Kv7.2/3 assay (FLIPR potassium assay, agonist mode); type: cell-based; details: Kv7.2/7.3 activation; HEK293 cells, human KCNQ2 and KCNQ3
T1 construct: expressed in transfected cells; host or cells: HEK293
Procedure: HEK293 cells were stably transfected with the appropriate ion channel cDNA(s) (human KCNQ2 and KCNQ3 genes). Cells were cultured in Dulbecco's Modified Eagle Medium/Nutrient mixture F-12 (D-MEM/F-12) supplemented with 10% fetal bovine serum, 100 U/mL penicillin G sodium, 100 µg/mL streptomycin sulfate and selection antibiotics. FLIPR Test Procedure: For FLIPR assay, cells were plated in 384-well black clear-bottomed microtiter plates (BD Biocoat Poly-D-Lysine Multiwell Cell Culture Plate) at 15'000 to 30'000 cells per well. Cells were incubated at 37° C. overnight or until cells reached sufficient density in the wells (near confluent monolayer) to use in fluorescence assays. […] Assays were performed with the FLIPR potassium assay kit (Molecular Devices) according to the manufacturer's instructions. Dye-loading: Growth media was removed and replaced with 20 μL of dye loading buffer for 60 min at room temperature. FLIPR Recording (agonist mode): Stock solutions of test compounds were prepared at a concentration of 33.3 mM in DMSO. 5 μL of 5× concentrated test, vehicle, or control compounds solutions prepared in the stimulation buffer (K^+-free buffer with 5 mM TI^+) were added to each well and fluorescence recording was continued for 5 min. The agonist effect (EC50 and % effect) of test or control compounds on Kv7 channels was determined as follows: Raw data was exported using Screenworks® 4.2 software and the fluorescence traces were analysed using Microsoft Excel (Microsoft Corp., Redmond, Wash.). The test compounds responses were expressed as % of maximum response of the control compound Flupirtine (Sigma-Aldrich), which was tested at concentrations ranging from 0.03 to 100 μM. Concentration-response data were fitted to a Hill equation. Non-linear least squares fits were made assuming a simple binding model. If appropriate, fits were weighted by the standard deviation. No assumptions about the fit parameters were made; the fit parameters were determined by the algorithm.

[2] = Rattus norvegicus, 20 min, AUC of fluorescence measured 20 min after compound addition, read-out: FLIPR: IC50 [nM] 20 min
[3] = Rattus norvegicus, Acute phase, ratio of AUC fluorescence before and after compound addition, read-out: FLIPR: IC50 [nM] acute

| Structure (SMILES) | IC50 [1, 2] [nM] | IC50 [1, 3] [nM] | change in vivo at 30 mg/kg (DBA/2J mice) [%] | further results |
| --- | --- | --- | --- | --- |
| CC(NC(=O)NC1CC2(CCC2)C1)c1ccnc(OC(F)F)c1 (racemic) [Example 100 (HCl salt), (±)-1-[1-(2-Difluoromethoxy-pyridin-4-yl)-ethyl]-3-spiro[3.3]hept-2-yl-urea] |  |  |  | change in vivo at 33 mg/kg (DBA/2J mice; 33 mg/kg po): -71% |
| C[C@H](NC(=O)NC1CC2(CCC2)C1)c1ccnc(OC(F)F)c1 (single isomer, unassigned) [Example 168] | 3 | 3.7 |  | AD duration [% vs veh] (Wistar rats): −84 % vs veh; Seizure stage [% vs veh] (Wistar rats): −58 % vs veh |
| COCC(Oc1cc(CNC(=O)NC2CC3(CCC3)C2)ccn1)C(F)(F)F (single isomer, unassigned) [Example 172, 1-Spiro[3.3]hept-2-yl-3-[2-(2,2,2-trifluoro-1-methoxymethyl-ethoxy)-pyridin-4-ylmethyl]-urea] |  |  | -81 | IC50 ([1]; AUC of fluorescence measured 20 min after compound addition, read-out: FLIPR: IC50 [nM] 20 min): 37 nM; IC50 ([1]; Acute phase, ratio of AUC fluorescence before and after compound addition, read-out: FLIPR: IC50 [nM] acute): 38 nM |
| C[C@H](NC(=O)NC1CC2(CCC2)C1)c1cc(OCC(F)(F)F)ncn1 (single isomer, unassigned) [Example 182] | 13 | 11 |  | change in vivo at 5 mg/kg (DBA/2J mice; 5 mg/kg po): -100% |
| O=C(NCc1ccnc(NCC(F)(F)F)c1)NC1CC2(CCC2)C1 [Example 116, 1-Spiro[3.3]hept-2-yl-3-[2-(2,2,2-trifluoro-ethylamino)-pyridin-4-ylmethyl]-urea] | 609 | 530 |  | EC50 (Kv7.2/7.3): 161 nM |
| O=C(NCc1cccc(OC(F)F)c1)NC1CC2(CC2)C1 [Example 155, 1-(3-Difluoromethoxy-benzyl)-3-spiro[2.3]hex-5-yl-urea] | 163 | 151 | -100 |  |
| O=C(NCc1ccnc(OCC(F)(F)F)c1)NC1CC2(CC2)C1 [Example 159, 1-Spiro[2.3]hex-5-yl-3-[2-(2,2,2-trifluoro-ethoxy)-pyridin-4-ylmethyl]-urea] | 47 | 26 | -100 |  |
| O=C(NCc1ccnc(OCC(F)(F)F)c1)NC1CC2(C1)CC(F)(F)C2 [Example 160, 1-(6,6-Difluoro-spiro[3.3]hept-2-yl)-3-[2-(2,2,2-trifluoro-ethoxy)-pyridin-4-ylmethyl]-urea] | 253 | 83 | -100 |  |
